This note sets out measurements from patent publication US11400137B2, “Rectal insulin for treatment of inflammatory bowel diseases” (University of Copenhagen, priority 2016, dated 2022).

Data set [1] deals with mice with DSS induced colitis (AOM+DSS). The data set can be described thus: AOM+DSS colitis/carcinogenesis model, rectal insulin intervention study (2% DSS). It is filed as in vivo, mouse. The text has this: In the azoxymethane and dextran sulphate sodium (AOM/DSS) carcinogenesis/colitis model, colitis is induced by DSS which promotes AOM induced tumours. This AOM/DSS model was used on mice having intestinal specific inactivation of the insulin receptor. These mice were obtained by crossing mice (B6.129S4(FVB)-Insrtm1Khn/J) with loxP sites flanking exon 4 in the insulin receptor gene with mice (B6.Cg-Tg(Vil-cre)997Gum/J) expressing the cre-recombinase under the villin promoter (both mice were obtained commercially from the Jackson Laboratory).
The discovery that inactivated insulin signalling in the intestine augments inflammation and stimulates development of inflammation induced tumours, prompted us to the invention that insulin might be used to treat colitis. This was investigated in an intervention study. Thus, wild type mice were set up in the AOM+DSS regime and divided into two groups. One group of mice was treated with rectal administration of insulin while the control group was treated with vehicle (phosphate buffered saline; PBS).
(§1) The insulin treatment regime was as follows: Each day during DSS treatment and the following first 4 days during remission (no DSS treatment) the mice were anaesthetized with isoflurane and 600 μl PBS or PBS+0.06 units human insulin was injected intra rectally. For the injection, a syringe fitted with a flexible silicone feeding needle (for rodents) was used. The mice were placed on their back with the lower end elevated for 10 minutes while still in isoflurane anaesthesia. After recovery from anaesthesia the mice were returned to their cages. The mice were weighed daily and signs of rectal bleeding scored.

Data set [2] shares this test system. The data set can be described thus: AOM+DSS + rectal insulin dose-response experiment (3% DSS). Type of data set: in vivo, mouse. The protocol: as §1
In this experiment 3% DSS was used as opposed to 2% DSS in the previous experiment (FIG. 3). During induction of inflammation there is a significant (FIG. 6, t-test, p<0.05) effect of the administration of 6 u/kg insulin whereas there is no effect of only 2 u/kg administration. Specifically the weight loss (weight at the end of DSS treatment−the weight at the beginning of the DSS treatment) is 16% less in the 6 u/kg insulin group compared to the PBS group (4.3 g in the PBS group versus 3.6 g in the 6 u/kg insulin group; see FIG. 5.

Data set [3] deals with insulin receptor mRNA. The data set can be described thus: Colonic crypts cultured as organoids with and without insulin. It is filed as cell-based. The following applies: insulin added to organoid medium vs none (FIG. 8). The protocol:
To investigate the effect of insulin on isolated colonic epithelial cells, colonic crypts were cultured as organoids with and without the addition of insulin to the medium. […] Several mechanisms are possible. First it is possible that insulin induces differentiation of the epithelial cells and that this process increases […]. Alternatively the insulin receptor may directly stimulate its own mRNA expression by yet undescribed mechanisms. The finding is important because the positive feedback loop is expected to prolong the duration of the insulin effect on the colonic mucosa.

For data set [4], the system named is COX2 mRNA. The data set can be described thus: COX2 mRNA expression in colons of mice with AOM+DSS induced inflammation. It is filed as in vivo, mouse. The text has this: Cyclooxygenase 2 (COX2/PTGS2) catalyzes the first step in the synthesis of the inflammatory mediators, the prostaglandins, from arachidonic acid. The expression of COX2 is increased in the colonic epithelial cells from patients with active colonic CD and UC and is therefore a biomarker for colonic inflammation in IBD.

How the values of data set [5] were obtained:
C57BL6 mice were treated with 3% DSS in their drinking water. At the peak of inflammation, the mice were treated with rectal insulin and the blood glucose concentration measured at 0, 15, 30, 60, 90, 120 and 240 minutes. Anaesthesia was induced after the first measurement was taken at time point zero. Anaesthesia was complete at time point 15 minutes and rectal insulin instillation or PBS control instillation also begun at time point 15 minutes.

In data set [6] the test system is Car3 mRNA. Briefly: Car3 mRNA expression in colons during AOM+DSS induced intestinal inflammation. It is filed as in vivo, mouse. The text has this:
On the contrary, in the INSR KO mice with inactivated insulin receptor in the intestinal epithelial cells the expression of Car3 was not increased by inflammation. Therefore it was investigated whether Car3 is a target for intestinal insulin signalling. The methodology described in Example 2 was followed.

The subject of data set [7] is colonic epithelial cells. The text has this:
Sections of mouse colons from INSR KO mice and INSR Flox mice were stained with an antibody against the proliferation marker Ki67. Thereafter, sections of inflamed (DSS induced) colons obtained from C57BL6 mice treated with either PBS, 2 u or 6 units/kg insulin were also stained with an antibody directed against the Ki67 proliferation marker and the number of KI67 positive cells per crypt counted.

Setting [8] is: 6 u/kg insulin, p<0.05 vs PBS, Fischer's exact test.

“Also recorded” adds a separate entry of the source. Like-named read-outs stand apart in the source and are kept apart here.

On to insulin, for which, in data set [1] (2% DSS, 0.06 units human insulin in 600 μl PBS intra rectally daily, PBS group 2.56 g, t-test p<0.05), the “weight loss from DSS start (day 1) to beginning of remission (day 8)” value amounted to 1.68 g. Also, the “mice with tumours with a size greater than 2 mm” value in data set [1] (PBS group 1.3 >2 mm tumours per mouse, p<0.05) is 0 mice. In data set [1] (all PBS mice showed bleeding, p<0.05), the “mice showing signs of rectal bleeding during treatment” value is reported as “two”. In data set [1] (blinded scoring of endoscopy videos, vs PBS), the “inflammation score by colonoscopy, late remission phase” value is given as “significant lower (and better) inflammation score; also recorded: improves inflammation score”. Further, the “body weight course (FIG. 3)” value in data set [1] (daily rectal recombinant human insulin 2 units/kg) is “re-gained weight”. Further, the “Rectal bleeding: No bleeding (number of mice)” value was 8 in data set [2] (2 u/kg insulin, PBS group 4) and 12 in data set [2] (setting [8]). The “Rectal bleeding: Bleeding (number of mice)” value in data set [2] (2 u/kg insulin, PBS group 9) is listed as 3; in data set [2] (setting [8]), 3. The “weight increase in remission phase, day 8 to day 11” value in data set [2] (3% DSS, 2 and 6 u/kg rectal insulin (FIG. 7)) is reported as “dose-dependent increase in weight”. Further, in data set [2] (3% DSS, 2 u/kg rectal insulin), the “effect on weight loss during induction of inflammation” value is given as “no effect”. Besides, the “weight loss less than in the PBS group” value in data set [2] (3% DSS, 6 u/kg rectal insulin) came to 16%. Besides, the “weight loss (weight at end of DSS treatment − weight at beginning)” value in data set [2] (3% DSS, 6 u/kg rectal insulin, PBS group 4.3 g, p<0.05) was determined as 3.6 g. In addition, the “concentration of insulin receptor mRNA” value in data set [3] is “increased almost two-fold”. The “COX2 mRNA expression in colon” value in data set [4] (2 u/kg rectal insulin) and in data set [4] (6 u/kg rectal insulin) was “significantly reduce” in each case. Also, in data set [5] (3% DSS, peak of inflammation, 0-240 minutes, rectal insulin), the “blood glucose concentration vs PBS control” value is “No significant difference”. For the same substance, the “systemic uptake of insulin following rectal instillation” value in data set [5] (inferred from blood glucose) is recorded as “negligible”. Further, the “Car3 mRNA expression in colon” value in data set [6] (2 u/kg rectal insulin) is reported as “not”; in data set [6] (6 u/kg rectal insulin), “significantly increased”. The “Ki67 positive cells per crypt, staining pattern vs PBS” value in data set [7] (2 u/kg rectal insulin) and in data set [7] (6 units/kg rectal insulin) was “No significant difference” each time.
